Assay results taken from the supplement of paper PMC10307832.

How the values were obtained:
Assay in all cases: relative viability (nuclei count vs DMSO), 5 days (fraction); higher = more cells survive
HCC-78 = system: HCC-78
In short: (§1)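 Lung cancer cell lines were pin-tool dosed in 1536-well plates on the day after seeding, with either a lone drug or a fixed anchor-drug dose plus five library-drug doses (not always all listed) in √10 steps. Nuclei were counted on 4× images after 5 days. Relative viability is the ratio of treated-well to vehicle-well nuclei counts, with each value a median of duplicate plates.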

HCC-827 = system: HCC-827
In short: as §1

NCI-H1650 = system: NCI-H1650
In short: as §1

LK-2 = system: LK-2
In short: as §1

NCI-H2087 = system: NCI-H2087
In short: as §1

EKVX = system: EKVX
In short: as §1

NCI-H1792 = system: NCI-H1792
In short: as §1

NCI-H727 = system: NCI-H727
In short: as §1

COR-L 105 = system: COR-L 105
In short: as §1

NCI-H1734 = system: NCI-H1734
In short: as §1

EMC-BAC-2 = system: EMC-BAC-2
In short: as §1

EPLC-272H = system: EPLC-272H
In short: as §1

SK-MES-1 = system: SK-MES-1
In short: as §1

NCI-H2126 = system: NCI-H2126
In short: as §1

LOU-NH91 = system: LOU-NH91
In short: as §1

ChaGo-K-1 = system: ChaGo-K-1
In short: as §1

RERF-LC-KJ = system: RERF-LC-KJ
In short: as §1

SW 1573 = system: SW 1573
In short: as §1

LU99A = system: LU99A
In short: as §1

NCI-H1944 = system: NCI-H1944
In short: as §1

BEN = system: BEN
In short: as §1

LCLC-97TM1 = system: LCLC-97TM1
In short: as §1

O=C(O)CCCCC(CCSCc1ccccc1)SCc1ccccc1 (centres undefined) [CPI-613] + CC1(C)CCC(c2ccc(Cl)cc2)=C(CN2CCN(c3ccc(C(=O)NS(=O)(=O)c4ccc(N[C@H](CCN5CCOCC5)CSc5ccccc5)c(S(=O)(=O)C(F)(F)F)c4)cc3)CC2)C1 [Navitoclax] (partner 0.5 µM)
relative viability (HCC-78; first compound 5 µM): 0.731
relative viability (HCC-78; first compound 15.81 µM): 0.749
relative viability (HCC-78; first compound 158.11 µM): 0.783
relative viability (HCC-78; first compound 500 µM): 0.876
relative viability (HCC-827; first compound 5 µM): 0.983
relative viability (HCC-827; first compound 15.81 µM): 0.96
relative viability (HCC-827; first compound 50 µM): 0.877
relative viability (HCC-827; first compound 158.11 µM): 0.414
relative viability (HCC-827; first compound 500 µM): 0.065
relative viability (NCI-H1650; first compound 5 µM): 1.17
relative viability (NCI-H1650; first compound 15.81 µM): 1.25
relative viability (NCI-H1650; first compound 50 µM): 1.08
relative viability (NCI-H1650; first compound 158.11 µM): 0.16
relative viability (NCI-H1650; first compound 500 µM): 0.034
relative viability (LK-2; first compound 5 µM): 0.957
relative viability (LK-2; first compound 15.81 µM): 0.922
relative viability (LK-2; first compound 50 µM): 1.05
relative viability (LK-2; first compound 158.11 µM): 0.966
relative viability (LK-2; first compound 500 µM): 0.87
relative viability (NCI-H2087; first compound 5 µM): 1.03
relative viability (NCI-H2087; first compound 15.81 µM): 0.953
relative viability (NCI-H2087; first compound 50 µM): 0.926
relative viability (NCI-H2087; first compound 158.11 µM): 0.135
relative viability (NCI-H2087; first compound 500 µM): 0.0127
relative viability (EKVX; first compound 5 µM): 0.945
relative viability (EKVX; first compound 15.81 µM): 0.875
relative viability (EKVX; first compound 50 µM): 0.898
relative viability (EKVX; first compound 158.11 µM): 0.483
relative viability (EKVX; first compound 500 µM): 0.951
relative viability (NCI-H1792; first compound 5 µM): 0.518
relative viability (NCI-H1792; first compound 15.81 µM): 0.595
relative viability (NCI-H1792; first compound 50 µM): 0.603
relative viability (NCI-H1792; first compound 158.11 µM): 0.411
relative viability (NCI-H1792; first compound 500 µM): 0.601
relative viability (NCI-H727; first compound 5 µM): 0.386
relative viability (NCI-H727; first compound 15.81 µM): 0.337
relative viability (NCI-H727; first compound 50 µM): 0.331
relative viability (NCI-H727; first compound 158.11 µM): 0.0645
relative viability (NCI-H727; first compound 500 µM): 0.046
relative viability (COR-L 105; first compound 5 µM): 0.847
relative viability (COR-L 105; first compound 15.81 µM): 0.776
relative viability (COR-L 105; first compound 50 µM): 0.719
relative viability (COR-L 105; first compound 158.11 µM): 0.297
relative viability (COR-L 105; first compound 500 µM): 0.286
relative viability (NCI-H1734; first compound 5 µM): 0.776
relative viability (NCI-H1734; first compound 15.81 µM): 0.677
relative viability (NCI-H1734; first compound 50 µM): 0.75
relative viability (NCI-H1734; first compound 158.11 µM): 0.545
relative viability (NCI-H1734; first compound 500 µM): 0.117
relative viability (EMC-BAC-2; first compound 5 µM): 1.15
relative viability (EMC-BAC-2; first compound 15.81 µM): 1.13
relative viability (EMC-BAC-2; first compound 50 µM): 1.15
relative viability (EMC-BAC-2; first compound 158.11 µM): 1.01
relative viability (EMC-BAC-2; first compound 500 µM): 1.06
relative viability (EPLC-272H; first compound 5 µM): 1.24
relative viability (EPLC-272H; first compound 15.81 µM): 0.897
relative viability (EPLC-272H; first compound 50 µM): 1.11
relative viability (EPLC-272H; first compound 158.11 µM): 0.86
relative viability (EPLC-272H; first compound 500 µM): 0.765
relative viability (SK-MES-1; first compound 5 µM): 1.08
relative viability (SK-MES-1; first compound 15.81 µM): 1.17
relative viability (SK-MES-1; first compound 50 µM): 1.1
relative viability (SK-MES-1; first compound 158.11 µM): 1.03
relative viability (SK-MES-1; first compound 500 µM): 1
relative viability (NCI-H2126; first compound 5 µM): 0.9
relative viability (NCI-H2126; first compound 15.81 µM): 0.805
relative viability (NCI-H2126; first compound 50 µM): 0.815
relative viability (NCI-H2126; first compound 158.11 µM): 0.662
relative viability (NCI-H2126; first compound 500 µM): 0.645
relative viability (LOU-NH91; first compound 5 µM): 0.683
relative viability (LOU-NH91; first compound 15.81 µM): 0.653
relative viability (LOU-NH91; first compound 50 µM): 0.664
relative viability (LOU-NH91; first compound 158.11 µM): 0.682
relative viability (LOU-NH91; first compound 500 µM): 0.579
relative viability (ChaGo-K-1; first compound 5 µM): 0.671
relative viability (ChaGo-K-1; first compound 15.81 µM): 0.982
relative viability (ChaGo-K-1; first compound 50 µM): 0.935
relative viability (ChaGo-K-1; first compound 158.11 µM): 0.882
relative viability (ChaGo-K-1; first compound 500 µM): 0.643
relative viability (RERF-LC-KJ; first compound 5 µM): 1.01
relative viability (RERF-LC-KJ; first compound 15.81 µM): 0.747
relative viability (RERF-LC-KJ; first compound 50 µM): 1.27
relative viability (RERF-LC-KJ; first compound 158.11 µM): 0.964
relative viability (RERF-LC-KJ; first compound 500 µM): 0.756
relative viability (SW 1573; first compound 5 µM): 0.871
relative viability (SW 1573; first compound 15.81 µM): 0.962
relative viability (SW 1573; first compound 50 µM): 0.792
relative viability (SW 1573; first compound 158.11 µM): 0.819
relative viability (SW 1573; first compound 500 µM): 0.904
relative viability (LU99A; first compound 5 µM): 0.631
relative viability (LU99A; first compound 15.81 µM): 0.77
relative viability (LU99A; first compound 50 µM): 0.816
relative viability (LU99A; first compound 158.11 µM): 0.142
relative viability (LU99A; first compound 500 µM): 0.0335
relative viability (NCI-H1944; first compound 5 µM): 0.998
relative viability (NCI-H1944; first compound 15.81 µM): 1.01
relative viability (NCI-H1944; first compound 50 µM): 1.02
relative viability (NCI-H1944; first compound 158.11 µM): 0.769
relative viability (NCI-H1944; first compound 500 µM): 0.627
relative viability (BEN; first compound 5 µM): 0.0595
relative viability (BEN; first compound 15.81 µM): 0.0465
relative viability (BEN; first compound 50 µM): 0.0686
relative viability (BEN; first compound 158.11 µM): 0.0624
relative viability (BEN; first compound 500 µM): 0.0516
relative viability (LCLC-97TM1; first compound 5 µM): 0.299
relative viability (LCLC-97TM1; first compound 15.81 µM): 0.502
relative viability (LCLC-97TM1; first compound 50 µM): 0.658
relative viability (LCLC-97TM1; first compound 158.11 µM): 0.079
relative viability (LCLC-97TM1; first compound 500 µM): 0.0431
